From US20100150948A1, “MATERIALS AND METHODS FOR IMPROVED IMMUNOGLYCOPROTEINS” (TRUBION PHARMACEUTICALS, INC., priority 2006, published 2010)

Experiments:
[1] = test system: CD16 (low affinity allele); experiment: Binding to soluble FcγR-MIg fusion on WIL2-S cells, flow cytometry; details: 0, 2, 5, 10, 30 or 100 μg/mL castanospermine in culture media
Procedure: (§1) The immunoglycoproteins produced according to Example 2 were assayed in vitro for binding to soluble Ig-fusion versions of Fcγ receptors, in which the extracellular domain of a receptor is fused to murine IgG2a Fc.
(§2) The soluble Fey receptor materials were generated by fusing the extracellular domain of Fcγ Receptors I (Genbank Acc. No. BC032634), IIa (Genbank Acc. No. NM_021642), IIb (Genbank Acc. No. BC031992), and III-V158 (high affinity allele) (Genbank Acc. No. X07934) and III-F158 (low affinity allele), respectively, to a murine IgG2a Fc with a Pro to Ser mutation at residue 238 (MIgG2aP238S). For both forms of Fcγ RIII (CD16), an HE4 leader was cloned onto CD16 amino acids 1-178 and then fused to MIgG2aP238S.
(§3) The assays were carried out as follows. […] The cells were then incubated with the desired FcγR-MIg fusion in the same diluent at a concentration of 1 μg/ml on ice for 45 minutes.
(§4) The complexes (WIL2-S cells/SMIP/FcγR-MIg) were then incubated with PE conjugated AffiniPure F(Ab')2 Goat Anti-Mouse IgG [Jackson Immunoresearch] (a mouse Fc-specific antibody with minimal cross reactivity with human Fc) at a 1:100 dilution. The cells were analyzed by one-color flow cytometry on a FACsCalibur using CellQuest software (Becton Dickinson).

CD16 = experiment: Binding to soluble FcγR-MIg fusion on WIL2-S cells, flow cytometry (allele not stated)
Procedure: as §1, §2, §3, §4
If TRU-016 supernatants from Example 2 were used in this assay instead of purified TRU-016 protein, the SMIP concentration in the supernatant was quantified by direct staining of WIL2-S cells with diluted supernatant along with a TRU-016 standard. TRU-016 was detected by staining with FITC conjugated F(Ab')2 Goat Anti-Human (gamma) [Caltag H10101] at a 1:50 dilution.

BJAB B cells = experiment: ADCC activity, 51Cr release, PBMC effector cells; assay type: cell-based, human; details: for ADCC activity (% specific killing) of TRU-015 purified protein: 0, 2, 5, 10, 30 or 100 μg/mL castanospermine in culture media
Procedure: To determine the ADCC activity of purified TRU-016, labeled BJAB B cells were used as targets and human peripheral blood mononuclear cells (PBMC) as effector cells. BJAB B cells (10^7 cells) were labeled with 500 μCi/mL ^51Cr sodium chromate for 2 hours at 37° C. in IMDM/10% FBS. PBMCs were isolated from heparinized, human whole blood by fractionation over Lymphocyte Separation Media (LSM, ICN Biomedical) gradients. Reagent samples were added to RPMI media with 10% FBS and serial dilutions of each reagent were prepared. The ^51Cr labeled BJAB were added at 2×10^4 cells/well. The PBMCs were then added at 5×10^5 cells/well for a final ratio of 25:1 effectors (PBMC):targets (BJAB). Reactions were set up in quadruplicate wells of a 96 well plate. Reactions were allowed to proceed for 6 hours at 37° C. in 5% CO2 prior to harvesting and counting. CPM released was measured on a Packard TopCounNXT from 50 μl dried culture supernatant. Percent specific killing was calculated by subtracting (cpm [mean of quadruplicate samples] of sample—cpm spontaneous release)/(cpm maximal release-cpm spontaneous release) x100, and data were plotted as % specific killing versus TRU-016 concentration.

[2] = target: T1, CD37 cell surface receptor (Homo sapiens, UniProt P11049); experiment: Binding of TRU-016 to B and non-B lymphocytes of human PBMC, two-color flow cytometry
T1 construct: Human PBMCs are isolated over LSM density gradients; endogenous in cells; host or cells: human PBMC
T1 sequence (P11049 1-281): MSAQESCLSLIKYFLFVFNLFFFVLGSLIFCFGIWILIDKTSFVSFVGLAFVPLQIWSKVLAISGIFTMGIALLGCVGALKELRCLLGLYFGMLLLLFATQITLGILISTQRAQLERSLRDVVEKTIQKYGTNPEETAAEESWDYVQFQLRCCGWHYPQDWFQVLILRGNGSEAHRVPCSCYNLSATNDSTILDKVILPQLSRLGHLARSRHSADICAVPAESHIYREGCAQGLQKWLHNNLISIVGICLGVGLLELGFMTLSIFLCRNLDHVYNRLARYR
Procedure: Experiments may be performed to confirm that the binding specificity of the parent antibody to the CD37 cell surface receptor is preserved in TRU-016. Human PBMCs are isolated over LSM density gradients and incubated with unconjugated TRU-016 and PE-conjugated anti-human CD19. Cells are washed and incubated with 1:100 FITC GAH IgG (Fc specific) for 45 minutes on ice. Cells are washed and analyzed by two-color flow cytometry on a FACsCalibur instrument using Cell Quest software. Cells are gated for B lymphocytes or non-B lymphocytes by CD19 staining.

Ramos cells = experiment: Ramos tumor model in nude mice; assay type: in vivo; details: TRU-016 from CHO cells treated with 200 μM DMJ, 10 μM kifenunsine or 200 μM castanospermine; 200 μg i.v.
Procedure: Nude mice are administered 5×10^6 Ramos cells subcutaneously on day 0 and injected intravenously with 200 μg control human IgG or TRU-016 test protein produced by CHO cells treated with 200 μM DMJ, 10 μM kifenunsine or 200 μM castanospermine on days 0, 2, 4, 6, and 8. Mice typically develop tumors within 6 days and die shortly thereafter. Tumors are measured three times weekly with digital calipers and LabCat software, and tumor volume is calculated as […]. Body weight is also determined once a week.
Mice are sacrificed when the tumor reaches 1500 mm^3 in size (1200 mm^3 on Fridays). Mice are also sacrificed if ulceration of a tumor occurs, the tumor inhibits the mobility of animal, or if weight loss equals or exceeds 20%.

[3] = 0, 10, 25, 50, 100 or 200 μM castanospermine in culture media

Row | Compound | CD16 binding (geometric mean fluorescence intensity) of TRU-015 purified protein produced by CHO cells cultured with the modifier [1] | CD16 binding (mean fluorescence intensity) of Protein A-purified TRU-016 (CD16; [3]) | ADCC activity (% specific killing) of TRU-016 purified protein (BJAB B cells; [3]) | ADCC (% specific killing) of TRU-016 purified protein (BJAB B cells; 200 μM DMJ, 10 μM kifenunsine or 200 μM castanospermine in culture media) | ADCC activity (% specific killing) of TRU-015 purified protein (BJAB B cells; PBMC from high affinity (V/V158) CD16 donors) | ADCC activity (% specific killing) of TRU-015 purified protein (BJAB B cells; PBMC from low affinity (F/F158) CD16 donors) | TRU-016 concentration at saturation of FITC signal on the B lymphocyte (CD19 positive gate) ([2]; CD19 positive gate) | mean fluorescence intensity (MFI) at saturation ([2]; CD19 positive gate) | staining of the non-B lymphocyte population ([2]; non-B lymphocyte gate) | CD16 binding activity of sera containing TRU-016 (CD16; mouse sera at 48, 72, 96 and 192 hours after administration of carbohydrate-modified TRU-016) | mean survival time (Ramos cells) | tumor volume (Ramos cells)
1 | O[C@H]1[C@H](O)[C@@H](O)CN2CC[C@H](O)[C@H]12 [castanospermine] | dose-dependent increase | dose-dependent increase | dose-dependent increase | improved ADCC | dose-dependent increase | dose-dependent increase | – | – | – | – | – | –
2 | TRU-016: recombinant single chain protein (SMIP) that binds CD37; G28-1 binding domain, modified hinge, human IgG1 CH2 and CH3; SEQ ID NO: 2 | – | – | – | – | – | – | approximately 1 μg/mL | ~1000 | detectable, but very low | retained its increased CD16 binding activity | increase mean survival time | reduce tumor volume
